# Laboratory results: US11407740B2 (priority 2018, dated 2022)
# Key:
# E. coli = assay: Bacterial susceptibility testing, MIC by broth microdilution (CLSI); details: for E. coli MIC: broth microdilution, 35° C., 18-24 h; for MIC: Escherichia coli, read-out: E. coli MIC, broth microdilution, 35° C., 18-24 h
# Protocol: (§1) Minimal inhibitory concentrations (MIC) were determined by the broth microdilution method in accordance with the Clinical and Laboratory Standards Institute (CLSI) guidelines. In brief, organism suspensions were adjusted to a 0.5 McFarland standard to yield a final inoculum between 3×10^3 and 7×10^5 colony-forming units (CFU)/mL. Drug dilutions and inocula were made in sterile, cation adjusted Mueller-Hinton Broth (Beckton Dickinson). An inoculum volume of 100 μL was added to wells containing 100 μL of broth with 2-fold serial dilutions of drug.
# K. pneumoniae = assay: as above; assay type: cell-based; details: 35° C., 18-24 h
# Protocol: as §1
SMILES,E. coli MIC (E. coli),K. pneumoniae MIC (K. pneumoniae),MIC (E. coli) [µg/mL]
O=c1[nH]cnc(CC(CO)c2ccc(C#Cc3ccc(CN4CCNCC4)cc3)cc2)c1O (stereo not drawn) [Compound 55],B (B: >1 μg/mL to ≤8.0 μg/mL),D (D: >32 μg/mL),
O=c1[nH]cnc(CC(CO)c2ccc(C#Cc3ccc(CN4CCNCC4)cc3)cc2)c1O (stereo not drawn) [Compound 54],,B (B: >1 μg/mL to ≤8.0 μg/mL),1 to 8
C[C@@H](CF)NCC(Cc1nc[nH]c(=O)c1O)c1ccc(C#Cc2ccc(CN3CC4(CCO4)C3)cc2)cc1 (mixture of isomers) [Compound 132],,,< 1
O=c1[nH]cnc(CC(CNCCF)c2ccc(C#Cc3cnn(C4COC4)c3)cc2)c1O (stereo not drawn) [Compound 208],,,1 to 8
C[C@@H](CF)NCC(Cc1nc[nH]c(=O)c1O)c1ccc(C#Cc2ccc(CN3CC4COCC4C3)cc2)cc1 (mixture of isomers) [Compound 84],,,< 1
"O=c1[nH]cnc(C[C@H](CN2CC(O)C2)c2ccc(C#Cc3ccc(CN4CCOCC4)cc3)cc2)c1O (single isomer, unassigned) [Compound 230]",,,< 1
N=S1(=O)CCC(NCc2ccc(C#Cc3ccc(C(CO)Cc4nc[nH]c(=O)c4O)cc3)cc2)CC1 (stereo not drawn) [Compound 149],,,1 to 8
O=c1[nH]cnc(CC(CO)c2ccc(C#Cc3ccc(CNCC4CCOC4)cc3)cc2)c1O (stereo not drawn) [Compound 52],,,1 to 8
O=c1[nH]cnc(CC(CNC2CC(F)(F)C2)c2ccc(C#Cc3ccc(CN4CCOCC4)cc3)cc2)c1O (stereo not drawn) [Compound 113],B (B: >1 μg/mL to ≤8.0 μg/mL),,
"C[C@@H](CC#N)NCC(Cc1ncnc(O)c1O)c1ccc(C#Cc2ccc(CN3CCOCC3)cc2)cc1 (single isomer, unassigned) [Compound 99]",,,< 1
"O=c1[nH]cnc(C[C@H](CO)c2ccc(C#Cc3ccc(CN(CCO)[C@@H]4CCOC4)cc3)cc2)c1O (single isomer, unassigned) [Compound 269]",,,1 to 8
O=c1[nH]cnc(CC(CN[C@H]2C[C@@H](F)C2)c2ccc(C#Cc3ccc(CN4CCOCC4)cc3)cc2)c1O (stereo partly drawn) [Compound 75],,,< 1
"O=c1[nH]cnc(CC(CN[C@H]2CCS(=O)(=O)C2)c2ccc(C#Cc3ccc(CN4CCOCC4)cc3)cc2)c1O (single isomer, unassigned) [Compound 188]",,,< 1
COC1CN(Cc2ccc(C#Cc3ccc(C(Cc4nc[nH]c(=O)c4O)CN4CC(F)C4)cc3)cc2)C1 (stereo not drawn) [Compound 181],B (B: >1 μg/mL to ≤8.0 μg/mL),,
"O=c1[nH]cnc(CC(CN[C@@H]2CCS(=O)(=O)C2)c2ccc(C#Cc3ccc(CN4CCOCC4)cc3)cc2)c1O (single isomer, unassigned) [Compound 186]",,,< 1
O=c1[nH]cnc(CC(CO)c2ccc(C#Cc3ccc(CN[C@@H]4CCN(CCO)C4)cc3)cc2)c1O (mixture of isomers) [Compound 155],,,1 to 8
